For orientation: Km means the substrate concentration at which the rate is half of its maximum.

pIC50: −log10 of the molar value.

Common to all, as to format: biochemical
Assay [1] addresses T1, GFAT-alpha (Homo sapiens, UniProt Q06210).
T1 construct: made in house; host or cells: SF9 insect cells (sonicated, centrifuged cell extract)
Briefly: GFAT inhibition, microtiter plate glucosamine 6-phosphate assay (GFAT-alpha). The settings on record: enzyme expressed in SF9 insect cells; 60 minutes at 37° C.; OD 585 nm; read-out: IC50 (concentration inhibiting 50% of maximum stimulation), GFAT-alpha. The protocol: (§1) For measurement of […], the GFAT enzyme reaction and analysis of the product are preferably carried out directly in a microtiter plate. The preferred reaction volume of 100 μl consists of the substrates glutamine (10 mM) and fructose 6-phosphate (10 mM), phosphate buffered saline (PBS) pH 7.4, ethylenediaminetetraacetic acid (EDTA) (5 mM), dithiothreitol (DTT) (1 mM), and the GFAT enzyme preparation or tissue extract (0.25-50 μl). The incubation mixture is added to the plate, the plate sealed, and placed floating on a 37° C. water bath for 1 hour. Additional incubation mixture is kept on ice to add to standard and control samples. After incubation, non-incubated control and glucosamine 6-phosphate standards of 2.5 to 30 nmoles along with the cold incubator mixture are added to the appropriate wells in the plate. The glucosamine 6-phosphate produced in the incubation mixtures is acetylated by first adding acetic anhydride 1.5% in acetone (10 μl), followed by potassium tetraborate 200 mM (50 μl). The plate is sealed, shaken for 2 minutes on a microshaker, and placed on an 80° C. water bath for 25 minutes. The plate is cooled by placing it on ice for 5 minutes and then Ehrlich's reagent is added (130 μl) (2 g Ehrlich's reagent+0.3 ml water+2.2 ml concentrated hydrochloric acid+17.4 ml acetic acid which is diluted 1:2 in acetic acid before use). The plate is then placed on a 37° C. water bath for 20 minutes and the OD determined at 500-610 nm, preferably 585 nm.
The reaction mixture is made including enough for standard curve samples and kept on ice. The reaction is started by adding the incubation reagents to the microtiter plate, sealing the plate, and placing the plate in a water bath at 37° C. for 1 hr. Standard curve samples are added to the plate, 2.5 to 30 nmoles/well/10 μl, and the cold mix added to control and standard curve samples. Glucosamine 6-phosphate is acetylated with acetic anhydride 1.5%/acetone 10 μl+potassium tetraborate 200 mM 50 μl, by sealing the plate, shaking for 2 minutes and placing on an 80° C. water bath for 25 minutes, then cooling on ice for 5 minutes. Diluted Ehrlich's reagent 130 μl is added and the plate placed on a 37° C. water bath for 20 minutes. The OD is determined at 585 nm.
Stimulation of GFAT activity. […] For most testing, a 60-minute incubation at 37° C. is carried out in 96 well microtiter plates. To give the best heat transfer the plates are sealed with a Costar plate sealer and floated on a 37° C. water bath. Air bubbles are removed from the bottom of the plate to ensure proper heat transfer to all wells. The 100 μl reaction volume consists of glutamine 10 mM, fructose 6-phosphate 10 mM, PBS 1×, EDTA 5 mM DTT 1 mM, and the enzyme preparation. […]

For assay [2], the target named is T2, GFAT-beta (Homo sapiens, UniProt O94808).
T2 construct: made in house; host or cells: SF9 insect cells (sonicated, centrifuged cell extract)
Briefly: Substrate Km determination, Lineweaver-Burk plot (GFAT-beta). The note with it: extracts from transfected SF9 insect cells, other substrate at saturating levels. The protocol:
FIG. 3 illustrates the effect of varying concentrations of the substrates glutamine and fructose 6-phosphate on the enzyme activity of GFAT-alpha and GFAT-beta. FIG. 3A is a graph illustrating incubation with 10 μl glutamine 200 mM+10 μl fructose 6-phosphate 3.125, 6.25, 12.5, 25, 50, 100, and 200 mM. FIG. 3B is a graph illustrating incubation with 10 μl fructose 6-phosphate 200 mM+10 μl glutamine 3.125, 6.25, 12.5, 25, 50, 100, and 200 mM. 10 μl of GFAT-alpha and 5 μl of GFAT-beta extracts from transfected SF9 insect cells are incubated with 1) 10 μl glutamine 200 mM+10 μl fructose 6-phosphate 3.125, 6.25, 12.5, 25, 50, 100, and 200 mM, and 2) 10 μl fructose 6-phosphate 200 mM+10 μl glutamine 3.125, 6.25, 12.5, 25, 50, 100, and 200 mM in an incubation media containing 10 μl PBS 10×, 10 μl EDTA 50 mM, 10 μl, DTT 10 mM and water to 100 μl. The plate is sealed with a Costar plate sealer and incubated for 60 minutes at 37° C. by floating on a water bath. Additional incubation mixture is kept on ice to add to standard and control samples. […] After a 20-minute incubation at 37° C., the OD is determined for each well at 585 nm. […]
FIG. 3C is a table illustrating the Km values of the substrates for the GFAT-alpha and GFAT-beta enzymes calculated from the data generated in FIGS. 3A and 3B. […]

Assay [3] concerns the target T2, GFAT-beta. Briefly: GFAT inhibition, microtiter plate glucosamine 6-phosphate assay (GFAT-beta). The protocol:
as §1, with “The plate is cooled by placing it on ice for 5 minutes and then Ehrlich's reagent is added (130 μl) (2 g Ehrlich's reagent+0.3 ml water+2.2 ml concentrated hydrochloric acid+17.4 ml acetic acid which is diluted 1:2 in acetic acid before use).” left out
The reaction mixture is made including enough for standard curve samples and kept on ice. […] The OD is determined at 585 nm. […]

T2 sequence (O94808 whole entry): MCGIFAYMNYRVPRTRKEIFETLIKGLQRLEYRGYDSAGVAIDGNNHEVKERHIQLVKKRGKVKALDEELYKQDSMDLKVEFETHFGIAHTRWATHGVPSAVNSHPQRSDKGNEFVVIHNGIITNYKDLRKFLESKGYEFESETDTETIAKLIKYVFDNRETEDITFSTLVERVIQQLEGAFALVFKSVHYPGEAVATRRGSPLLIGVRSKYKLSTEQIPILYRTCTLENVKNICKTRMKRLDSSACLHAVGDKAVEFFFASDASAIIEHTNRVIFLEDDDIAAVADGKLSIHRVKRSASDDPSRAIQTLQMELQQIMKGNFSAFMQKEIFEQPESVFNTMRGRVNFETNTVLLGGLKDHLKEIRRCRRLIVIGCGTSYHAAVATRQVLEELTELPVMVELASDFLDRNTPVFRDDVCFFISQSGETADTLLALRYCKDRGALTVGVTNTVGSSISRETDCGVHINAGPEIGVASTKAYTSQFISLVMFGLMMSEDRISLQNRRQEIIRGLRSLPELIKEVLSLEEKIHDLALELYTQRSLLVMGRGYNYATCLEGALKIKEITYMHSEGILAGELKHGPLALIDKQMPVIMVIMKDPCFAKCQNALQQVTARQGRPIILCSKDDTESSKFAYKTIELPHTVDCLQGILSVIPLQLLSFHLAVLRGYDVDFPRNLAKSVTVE
T1 sequence (Q06210 1-681 isoform Q06210-2 I57T): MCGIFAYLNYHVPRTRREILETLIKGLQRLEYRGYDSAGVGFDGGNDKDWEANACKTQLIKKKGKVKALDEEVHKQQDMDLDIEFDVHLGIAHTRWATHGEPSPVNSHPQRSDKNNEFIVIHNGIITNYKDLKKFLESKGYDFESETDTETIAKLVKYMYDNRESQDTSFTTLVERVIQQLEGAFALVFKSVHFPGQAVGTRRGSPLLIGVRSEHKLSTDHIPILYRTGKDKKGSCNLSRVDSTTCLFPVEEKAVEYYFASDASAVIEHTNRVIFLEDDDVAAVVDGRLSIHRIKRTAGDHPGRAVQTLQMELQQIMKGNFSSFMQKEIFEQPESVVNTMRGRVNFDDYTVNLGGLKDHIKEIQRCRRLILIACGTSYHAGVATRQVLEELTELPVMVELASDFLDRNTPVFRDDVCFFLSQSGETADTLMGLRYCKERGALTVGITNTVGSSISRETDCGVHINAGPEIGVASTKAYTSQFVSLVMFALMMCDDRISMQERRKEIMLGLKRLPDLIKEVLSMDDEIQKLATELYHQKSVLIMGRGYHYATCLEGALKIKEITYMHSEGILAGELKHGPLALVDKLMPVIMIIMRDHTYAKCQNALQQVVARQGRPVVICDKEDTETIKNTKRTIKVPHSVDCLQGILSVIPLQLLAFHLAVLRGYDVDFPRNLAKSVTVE

For `N[C@@H](CNC(=O)CBr)C(=O)O` [N3-(bromoacetyl)-L-2,3-diaminopropanoic acid], in assay [1], the pIC50 was 6.42. As to `O=C(CO)[C@@H](O)[C@H](O)[C@H](O)COP(=O)(O)O` [fructose 6-phosphate], in assay [2], the Km was 6.8 mM. On to `COC(=O)/C=C/C(=O)NC[C@H](N)C(=O)O` [FMDP, N3-(-4-methoxyfumaroyl)-L-2,3-diaminopropanoic acid], for which the pIC50 in assay [1] was 5.40. For `NC(=O)CC[C@H](N)C(=O)O` [glutamine], the Km in assay [2] turned out to be 1.99 mM.

In the case of “uridine-diphosphate-N-acetylglucosamine [UDP-N-acetylglucosamine]”, the pIC50 in assay [3] (enzyme expressed in SF9 insect cells, 60 minutes at 37° C., OD 585 nm, read-out: IC50 (concentration inhibiting 50% of maximum stimulation), GFAT-beta) was 4.00; in assay [1], 5.10. Also, the “times as much required to inhibit GFAT-beta compared with GFAT-alpha” value in assay [3] (ratio of IC50 GFAT-beta to GFAT-alpha) was “more than 12 times”.

With `[N-]=[N+]=CC(=O)CC[C@H](N)C(=O)O` [DON, 6-diazo-5-oxo-L-norleucine], the pIC50 in assay [1] is 4.74.

For the origin of these results see patent US20050032145A1, “Methods for measuring activity of glutamine:fructose 6-phosphate amidotransferase and activity of inhibitors thereof” (priority 2002, published 2005).
